Experimental data from article PMC7271668 (Frontiers in Pharmacology, 2020).
Values joined by “and” are separate entries in the source; they are usually repeats but may differ in a detail not shown here. Equal entries are not always repeated. Where two headings read alike, the source gives them in different places.

Assays:
human OAT3 [1] = molecular target: T1, human OAT3 (Homo sapiens, UniProt Q8TCC7); experiment: Inhibition of OAT3-mediated enalaprilat uptake in OAT3-transfected HEK293 cells
T1 sequence (Q8TCC7 1-542): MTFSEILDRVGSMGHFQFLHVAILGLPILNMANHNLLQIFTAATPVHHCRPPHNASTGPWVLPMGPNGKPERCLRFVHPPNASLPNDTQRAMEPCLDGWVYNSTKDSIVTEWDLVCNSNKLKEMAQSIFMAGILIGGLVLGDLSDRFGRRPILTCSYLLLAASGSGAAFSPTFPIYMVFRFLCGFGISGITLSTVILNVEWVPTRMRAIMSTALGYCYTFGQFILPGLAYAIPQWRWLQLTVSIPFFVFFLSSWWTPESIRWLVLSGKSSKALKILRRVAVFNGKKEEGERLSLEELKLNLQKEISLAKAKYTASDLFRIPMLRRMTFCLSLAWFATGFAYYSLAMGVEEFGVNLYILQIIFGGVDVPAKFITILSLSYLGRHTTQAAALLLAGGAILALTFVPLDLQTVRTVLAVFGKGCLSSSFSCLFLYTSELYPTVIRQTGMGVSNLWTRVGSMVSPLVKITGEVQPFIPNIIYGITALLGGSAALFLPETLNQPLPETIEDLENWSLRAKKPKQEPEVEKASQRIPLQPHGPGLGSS
Procedure: Because the present study examined a number of compounds with structural diversity, a 30 min preincubation was carried out for all compounds in order to eliminate inconsistencies. […] OAT3-transfected HEK293 cells or mock cells were washed thrice with pre-warmed HBSS and preincubated with HBSS containing different concentrations of inhibitors for 30 min at 37°C.
For sample preparation before analysis, 100 μl acetonitrile containing 500 nM tolbutamide (internal standard, IS) was added as a protein-precipitating agent to 50-μl cell samples. All samples were vortexed for 2 min and centrifuged at 13,000 rpm for 10 min. Ten microliters of the supernatants were transferred into injection vials for concentration determination.
The LC-MS/MS system consisted of an API 4000 Qtrap mass spectrometer equipped with a turbo-V ionization source (Applied Biosystems, Foster City, CA, USA), two LC-20AD pumps with a CBM-20A controller, a DGU-20A solvent degasser, and a SIL-20A autosampler (Shimadzu, Columbia, MD, USA). A reverse phase C18 column (50×2.1 mm, 5 µm particle size; Agela, China) and a gradient elution at 0.3 ml/min were employed for chromatographic separation. […] Analyst 1.6.3 (AB SCIEX, USA) was used to collect and process the data.
where I was the inhibitor concentration.

OAT4 = tested on: OAT4; parameters: method as in Tan et al., 2017; details: ref Tan et al., 2017; cited from earlier work
OAT1 = tested on: OAT1; parameters: method as in Tan et al., 2017; details: ref Tan et al., 2017; cited from earlier work
OAT3 = details: cited from earlier work
human OATP2B1 = molecular target: T2, human OATP2B1 (Homo sapiens, UniProt O94956); experiment: Enalaprilat uptake kinetics in HEK293 cells overexpressing human OATP2B1; type: in vitro ADME; details: OATP2B1-transfected HEK293, net uptake (mock subtracted), enalaprilat 0-500 μM, 5 min incubation
T2 construct: expressed in transfected cells; gift of Prof; Dafang Zhong, Shanghai Institute of Materia Medica
T2 sequence (O94956 1-709): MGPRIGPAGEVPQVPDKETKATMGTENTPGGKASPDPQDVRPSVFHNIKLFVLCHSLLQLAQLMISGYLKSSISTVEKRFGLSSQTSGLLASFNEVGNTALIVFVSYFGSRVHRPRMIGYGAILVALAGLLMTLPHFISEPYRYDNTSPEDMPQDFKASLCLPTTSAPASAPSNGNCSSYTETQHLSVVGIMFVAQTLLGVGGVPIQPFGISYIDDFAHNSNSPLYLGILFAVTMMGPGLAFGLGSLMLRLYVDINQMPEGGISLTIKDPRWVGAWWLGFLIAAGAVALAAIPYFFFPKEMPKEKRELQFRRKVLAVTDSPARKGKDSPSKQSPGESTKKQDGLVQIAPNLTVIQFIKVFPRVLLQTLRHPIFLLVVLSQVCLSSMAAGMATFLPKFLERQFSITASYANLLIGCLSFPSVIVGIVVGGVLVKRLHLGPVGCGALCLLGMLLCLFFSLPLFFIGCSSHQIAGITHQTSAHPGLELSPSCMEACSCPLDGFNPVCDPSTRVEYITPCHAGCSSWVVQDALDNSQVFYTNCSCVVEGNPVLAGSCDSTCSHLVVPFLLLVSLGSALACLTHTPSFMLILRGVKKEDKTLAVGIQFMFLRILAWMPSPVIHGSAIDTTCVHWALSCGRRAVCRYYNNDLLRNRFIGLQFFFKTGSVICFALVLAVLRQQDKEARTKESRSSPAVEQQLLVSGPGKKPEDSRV
Procedure: (§1) Human embryonic kidney 293 (HEK293) cells stably overexpressing human OAT1, OAT3, organic cation transporter 2 (OCT2), OATP1B1, OATP1B3 or OATP2B1 as well as empty vectors were generously provided by Professor Dafang Zhong, Shanghai Institute of Materia Medica, Chinese Academy of Sciences (Shanghai, China). Respective transport activities had been validated using specific probe substrates ([Zhong et al., 2014]). All cells were grown in DMEM supplemented with 10% FBS, at 37°C with 5% CO2 and 95% humidity.
(§2) Cells were seeded in 24-well plates at a density of 200,000 cells per well and cultured in high glucose DMEM for 48 h. On the third day and prior to the start of the uptake experiment, cells were washed thrice with pre-warmed HBSS and then incubated with HBSS for 30 min at 37°C. […] Incubations were terminated 5 min after the addition of substrate by washing with ice-cold HBSS. Cells were immediately lysed with 200 μl ultrapure water by repeated freezing and thawing up to three times. Intracellular drug concentrations were determined using a liquid chromatography - tandem mass spectrometry (LC-MS/MS) method. Cellular protein levels were estimated using the Bicinchoninine acid assay per manufacturer’s instruction (Takara, Japan).
(§3) Kinetic parameters of transporter-mediated uptake were estimated by nonlinear regression analysis using GraphPad Prism 5.01 (La Jolla, CA, USA). […]

human OAT3 [2] = molecular target: T1, human OAT3; experiment: Enalaprilat uptake kinetics in HEK293 cells overexpressing human OAT3; type: in vitro ADME; parameters: expressed in transfected cells; gift of Prof; Dafang Zhong, Shanghai Institute of Materia Medica
Procedure: as §1, §2, §3

[3] = cited from earlier work; for Excreted into the urine, % of the dose: after oral administration of enalapril, MacFadyen et al., 1993
human OAT1 = molecular target: T3, human OAT1 (Homo sapiens, UniProt Q4U2R8); experiment: Enalaprilat uptake kinetics in HEK293 cells overexpressing human OAT1; type: in vitro ADME; details: OAT1-transfected HEK293, net uptake (mock subtracted), enalaprilat 0-500 μM, 5 min incubation
T3 construct: expressed in transfected cells; gift of Prof; Dafang Zhong, Shanghai Institute of Materia Medica
T3 sequence (Q4U2R8 1-563): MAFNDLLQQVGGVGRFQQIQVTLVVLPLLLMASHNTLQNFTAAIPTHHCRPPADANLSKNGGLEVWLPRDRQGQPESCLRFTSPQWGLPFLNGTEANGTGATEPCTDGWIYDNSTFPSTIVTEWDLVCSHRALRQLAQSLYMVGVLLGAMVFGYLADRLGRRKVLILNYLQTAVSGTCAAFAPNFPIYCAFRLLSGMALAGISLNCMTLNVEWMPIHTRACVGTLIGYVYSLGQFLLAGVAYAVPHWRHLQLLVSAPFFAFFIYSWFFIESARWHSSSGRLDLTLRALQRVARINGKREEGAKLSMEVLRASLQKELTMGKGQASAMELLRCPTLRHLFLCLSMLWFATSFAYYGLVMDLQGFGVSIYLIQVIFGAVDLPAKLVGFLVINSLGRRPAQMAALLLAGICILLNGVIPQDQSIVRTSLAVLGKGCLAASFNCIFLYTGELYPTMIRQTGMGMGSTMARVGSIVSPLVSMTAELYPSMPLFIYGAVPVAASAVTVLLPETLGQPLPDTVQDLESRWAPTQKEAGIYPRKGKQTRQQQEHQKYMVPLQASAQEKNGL
Procedure: as §1, §2, §3

[4] = IC50, inhibition of enalaprilat uptake by selected drugs, HEK293-OAT3, enalaprilat 30 µM, 30 min preincubation, mean ± sd of three incubations

Row | SMILES | IC50 (human OAT3 [1]) [nM] | IC50 (human OAT3 [1]; [4]) | other results
1 | O=c1c(O)c(-c2ccc(O)c(O)c2)oc2cc(O)cc(O)c12 [Quercetin] | 750 ± 370 | – | –
2 | CCOc1cc(CC(=O)N[C@@H](CC(C)C)c2ccccc2N2CCCCC2)ccc1C(=O)O [Repaglinide] | – | 2100 ± 310 nM | –
3 | O=c1c(-c2ccc(O)cc2)coc2cc(O)ccc12 [Daidzein] | 5800 ± 3960 | – | –
4 | O=c1cc(-c2ccccc2)oc2cc(O)cc(O)c12 [Chrysin] | 44 ± 13 | – | –
5 | CCC1=C(C)CN(C(=O)NCCc2ccc(S(=O)(=O)NC(=O)N[C@H]3CC[C@H](C)CC3)cc2)C1=O [Glimepiride] | – | 370 ± 40 nM | –
6 | COc1c(O[C@@H]2O[C@H](C(=O)O)[C@@H](O)[C@H](O)[C@H]2O)cc(O)c2c(=O)cc(-c3ccccc3)oc12 [Wogonoside] | 11700 ± 6290 | – | –
7 | Cc1nc(-c2ccc(OCC(C)C)c(C#N)c2)sc1C(=O)O [Febuxostat] | – | 410 ± 50 nM | –
8 | CC(C)(Sc1ccncc1-c1ccc(C#N)c2ccccc12)C(=O)O [Verinurad] | – | 800 nM and < 1000 nM | Affinity for OAT4, fold lower as compared to URAT1 (OAT4): approximately 200 fold; Affinity for OAT1, fold lower as compared to URAT1 (OAT1): approximately 200 fold
9 | NNC(=O)c1ccncc1 [isoniazid] | – | – | Km (OAT3; read-out: Km as OAT3 substrate, ref Parvez et al., 2018): 234 µM
10 | O=C(O)CSc1nnc(Br)n1-c1ccc(C2CC2)c2ccccc12 [Lesinurad] | – | 800 nM and < 1000 nM | –
11 | O=c1c(O)c(-c2ccc(O)cc2)oc2cc(O)cc(O)c12 [Kaempferol] | 88 ± 14 | – | –
12 | O=c1cc(-c2ccc(O)cc2)oc2cc(O[C@@H]3O[C@H](CO)[C@@H](O)[C@H](O)[C@H]3O)cc(O)c12 [Apigetrin] | 7800 ± 4030 | – | –
13 | CCCCC(=O)N(Cc1ccc(-c2ccccc2-c2nnn[nH]2)cc1)[C@H](C(=O)O)C(C)C [Valsartan] | – | 900 ± 90 nM | –
14 | O=C1C[C@@H](c2ccc(O)c(O)c2)Oc2cc(O)cc(O)c21 [Eriodictyol] | 1480 ± 600 | – | –
15 | O=c1cc(-c2ccc(O)cc2)oc2cc(O)cc(O)c12 [Apigenin] | 330 ± 90 | – | –
16 | O=S(=O)(O)CCS [mesna] | – | – | Km (OAT3; read-out: Km as OAT3 substrate, ref Cutler et al., 2012): 390 µM
17 | C[C@H](N[C@@H](CCc1ccccc1)C(=O)O)C(=O)N1CCC[C@H]1C(=O)O [Enalaprilat] | – | – | Vmax (human OATP2B1): 20.1 ± 2.7 nmol/min/mg protein; Vmax (human OAT3 [2]; OAT3-transfected HEK293, net uptake (mock subtracted), enalaprilat 0-500 μM, 5 min incubation): 87.4 ± 1.1 nmol/min/mg protein; Excreted into the urine, % of the dose ([3]; ref Ulm et al., 1982): 43 % of the dose; Vmax (human OAT1): 42.4 ± 1.3 nmol/min/mg protein

Row | SMILES | IC50 (human OAT3 [1]) [nM] | IC50 (human OAT3 [1]; [4]) | other results
18 | COc1c(O)cc(O)c2c(=O)cc(-c3ccccc3)oc12 [Wogonin] | 240 ± 40 | – | –
19 | CCc1oc2ccccc2c1C(=O)c1cc(Br)c(O)c(Br)c1 [Benzbromarone] | – | 140 nM and < 1000 nM | –
20 | O=c1c(O)c(-c2ccc(O)c(O)c2)oc2c(O)c(O)cc(O)c12 [Gossypetin] | 710 ± 80 | – | –
21 | Cc1ccc(C)c(OCCCC(C)(C)C(=O)O)c1 [Gemfibrozil] | – | 3500 ± 510 nM | –
22 | COc1c(O)cc2oc(-c3ccccc3)cc(=O)c2c1O [Oroxylin A] | 220 ± 120 | – | –
23 | CCOC(=O)[C@H](CCc1ccccc1)N[C@@H](C)C(=O)N1CCC[C@H]1C(=O)O [Enalapril] | – | – | Transport by OAT3 (substrate status) (human OAT3 [2]; OAT3-transfected HEK293, Supplementary Figure 1): could also be transported by OAT3; Plasma exposure, fold lower than that of enalaprilat ([3]; after enalapril administration, ref Li et al., 2017): about 4.5 fold; Excreted into the urine, % of the dose ([3]; ref Ulm et al., 1982): 18 % of the dose; Fraction of the dose converted to enalaprilat ([3]; oral enalapril, dose 10 mg, man, ref Ulm et al., 1982): about 40%
24 | C=C1CC23CCC4C(C)(C(=O)OC5OC(C(=O)O)C(O)C(O)C5O)CCCC4(C)C2CCC1(O)C3 (centres unmarked) [steviol acyl glucuronide] | – | – | Km (OAT3): 368 µM
25 | O=c1c(O)c(-c2cc(O)c(O)c(O)c2)oc2cc(O)cc(O)c12 [Myricetin] | 22600 ± 6860 | – | –
26 | O=c1c(O[C@@H]2O[C@H](CO)[C@@H](O)[C@H](O)[C@H]2O)c(-c2ccc(O)c(O)c2)oc2cc(O)cc(O)c12 [Isoquercetin] | 11700 ± 2060 | – | –
27 | O=c1c(O)c(-c2ccccc2)oc2cc(O)cc(O)c12 [Galangin] | 30 ± 26 | – | –
28 | O=C1c2c(O)cc(O)cc2OC(c2ccc(O)c(O)c2)C1O (centres unmarked) [Taxifolin] | 7020 ± 3370 | – | –
29 | O=C1C(CC[S+]([O-])c2ccccc2)C(=O)N(c2ccccc2)N1c1ccccc1 (centres unmarked) [Sulfinpyrazone] | – | 950 ± 370 nM | –
30 | CC(C)=CCc1c(-c2ccc(O)cc2O)oc2c(CC=C(C)C)c(O)cc(O)c2c1=O [Mulberrin] | 1220 ± 180 | – | –
31 | CCCc1nc2c(C)cc(-c3nc4ccccc4n3C)cc2n1Cc1ccc(-c2ccccc2C(=O)O)cc1 [Telmisartan] | – | 860 ± 220 nM | –
32 | O=c1cc(-c2ccc(O)c(O)c2)oc2cc(O)cc(O)c12 [Luteolin] | 660 ± 110 | – | –
33 | O=c1c(O)c(-c2ccc(O)c(O)c2)oc2cc(O)ccc12 [Fisetin] | 3820 ± 1600 | – | –
